Legend:
DGKθ = molecular target: T1, DGKθ (Homo sapiens, UniProt P52824); experiment: free ATP; type: cell-based
T1 sequence (P52824 1-942): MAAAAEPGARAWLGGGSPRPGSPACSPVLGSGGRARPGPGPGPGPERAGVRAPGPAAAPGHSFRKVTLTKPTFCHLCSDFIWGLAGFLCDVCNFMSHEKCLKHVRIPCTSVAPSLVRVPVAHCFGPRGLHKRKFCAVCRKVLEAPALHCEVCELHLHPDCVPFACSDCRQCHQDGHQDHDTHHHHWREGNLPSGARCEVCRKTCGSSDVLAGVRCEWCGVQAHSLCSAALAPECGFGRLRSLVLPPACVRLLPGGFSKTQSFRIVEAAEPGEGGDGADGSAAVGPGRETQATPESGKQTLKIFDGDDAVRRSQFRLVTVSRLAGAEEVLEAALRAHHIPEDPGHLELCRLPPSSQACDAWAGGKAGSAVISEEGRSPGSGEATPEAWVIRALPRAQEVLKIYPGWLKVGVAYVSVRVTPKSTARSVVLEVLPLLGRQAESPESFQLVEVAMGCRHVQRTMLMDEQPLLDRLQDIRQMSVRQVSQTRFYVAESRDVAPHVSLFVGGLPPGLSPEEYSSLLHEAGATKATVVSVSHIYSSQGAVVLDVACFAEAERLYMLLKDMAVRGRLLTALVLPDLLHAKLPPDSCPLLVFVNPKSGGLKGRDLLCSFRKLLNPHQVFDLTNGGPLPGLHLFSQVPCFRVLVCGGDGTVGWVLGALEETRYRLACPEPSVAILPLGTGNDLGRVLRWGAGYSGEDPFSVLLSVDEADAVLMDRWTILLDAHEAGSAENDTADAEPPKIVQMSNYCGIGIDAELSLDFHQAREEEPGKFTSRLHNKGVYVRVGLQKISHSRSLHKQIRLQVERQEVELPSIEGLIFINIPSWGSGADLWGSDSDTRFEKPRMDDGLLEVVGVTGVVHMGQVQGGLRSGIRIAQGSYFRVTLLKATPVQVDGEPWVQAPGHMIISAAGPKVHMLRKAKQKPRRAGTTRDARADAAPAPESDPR

DGKζ = DGKζ (Homo sapiens, UniProt Q13574); experiment: free ATP; type: cell-based
DGKκ = molecular target: T2, DGKκ (Homo sapiens, UniProt Q5KSL6); experiment: free ATP; type: cell-based
T2 sequence (Q5KSL6 1-1271): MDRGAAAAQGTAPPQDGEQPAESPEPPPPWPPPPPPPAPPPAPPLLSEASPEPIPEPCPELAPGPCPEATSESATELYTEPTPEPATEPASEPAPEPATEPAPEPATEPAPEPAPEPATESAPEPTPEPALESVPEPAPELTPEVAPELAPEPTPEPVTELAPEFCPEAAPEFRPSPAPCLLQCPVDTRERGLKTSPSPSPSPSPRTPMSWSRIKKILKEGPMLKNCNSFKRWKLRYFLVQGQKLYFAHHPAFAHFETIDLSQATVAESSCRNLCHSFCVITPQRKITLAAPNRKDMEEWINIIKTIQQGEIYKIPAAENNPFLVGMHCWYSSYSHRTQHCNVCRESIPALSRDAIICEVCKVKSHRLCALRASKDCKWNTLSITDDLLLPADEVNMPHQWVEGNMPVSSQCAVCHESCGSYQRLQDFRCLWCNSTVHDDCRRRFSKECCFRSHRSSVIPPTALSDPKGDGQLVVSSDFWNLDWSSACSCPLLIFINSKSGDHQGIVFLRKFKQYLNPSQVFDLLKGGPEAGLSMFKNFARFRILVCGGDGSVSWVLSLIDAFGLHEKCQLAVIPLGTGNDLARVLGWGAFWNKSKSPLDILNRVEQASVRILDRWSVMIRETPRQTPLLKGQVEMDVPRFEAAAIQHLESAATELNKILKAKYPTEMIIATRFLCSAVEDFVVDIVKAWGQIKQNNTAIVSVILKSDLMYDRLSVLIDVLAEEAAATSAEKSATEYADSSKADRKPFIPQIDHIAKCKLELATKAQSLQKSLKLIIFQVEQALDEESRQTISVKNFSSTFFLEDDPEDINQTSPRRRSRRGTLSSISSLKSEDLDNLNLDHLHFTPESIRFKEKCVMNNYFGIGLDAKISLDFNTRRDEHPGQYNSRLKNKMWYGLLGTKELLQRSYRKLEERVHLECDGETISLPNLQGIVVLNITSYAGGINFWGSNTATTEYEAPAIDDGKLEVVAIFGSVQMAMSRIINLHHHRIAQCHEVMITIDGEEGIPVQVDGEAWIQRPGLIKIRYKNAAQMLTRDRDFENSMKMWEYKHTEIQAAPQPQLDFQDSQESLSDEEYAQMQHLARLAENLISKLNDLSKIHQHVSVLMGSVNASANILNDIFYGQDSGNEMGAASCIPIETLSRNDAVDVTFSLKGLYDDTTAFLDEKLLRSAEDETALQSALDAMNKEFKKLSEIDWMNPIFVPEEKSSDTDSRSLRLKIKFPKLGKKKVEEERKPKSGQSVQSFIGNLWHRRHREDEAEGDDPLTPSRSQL

FER [1] = molecular target: T3, FER (Homo sapiens, UniProt P16591); experiment: free ATP competition with ATP acyl phosphate probe, SILAC LC-MS; type: cell-based
DGKα = DGKα (Rattus norvegicus, UniProt P51556); experiment: ADP-Glo DAG phosphorylation assay in lysate; type: biochemical
FER [2] = molecular target: T3, FER; experiment: ATP acyl phosphate probe competition, SILAC LC-MS; type: cell-based

T3 sequence (P16591 whole entry): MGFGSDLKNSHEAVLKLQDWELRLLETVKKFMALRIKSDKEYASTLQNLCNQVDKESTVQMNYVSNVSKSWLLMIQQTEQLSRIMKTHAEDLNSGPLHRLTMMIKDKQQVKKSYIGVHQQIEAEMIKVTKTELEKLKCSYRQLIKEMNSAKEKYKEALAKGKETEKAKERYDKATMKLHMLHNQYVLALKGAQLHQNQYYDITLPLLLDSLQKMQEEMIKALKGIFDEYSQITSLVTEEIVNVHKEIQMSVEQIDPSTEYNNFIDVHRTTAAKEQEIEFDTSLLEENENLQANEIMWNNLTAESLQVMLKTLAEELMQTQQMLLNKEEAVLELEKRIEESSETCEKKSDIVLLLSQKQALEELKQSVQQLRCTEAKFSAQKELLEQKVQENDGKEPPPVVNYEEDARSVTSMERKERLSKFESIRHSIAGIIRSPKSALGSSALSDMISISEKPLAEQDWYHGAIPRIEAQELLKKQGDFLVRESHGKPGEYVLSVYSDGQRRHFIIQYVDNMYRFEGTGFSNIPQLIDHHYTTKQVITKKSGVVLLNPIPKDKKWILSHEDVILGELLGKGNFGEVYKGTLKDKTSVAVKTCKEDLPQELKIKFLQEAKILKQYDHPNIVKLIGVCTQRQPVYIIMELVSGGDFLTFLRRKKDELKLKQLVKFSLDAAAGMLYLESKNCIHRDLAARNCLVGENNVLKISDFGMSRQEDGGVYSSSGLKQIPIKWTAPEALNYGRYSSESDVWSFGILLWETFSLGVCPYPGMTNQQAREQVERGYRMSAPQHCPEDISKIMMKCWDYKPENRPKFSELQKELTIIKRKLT
Chain of DGKζ (Q13574 whole entry): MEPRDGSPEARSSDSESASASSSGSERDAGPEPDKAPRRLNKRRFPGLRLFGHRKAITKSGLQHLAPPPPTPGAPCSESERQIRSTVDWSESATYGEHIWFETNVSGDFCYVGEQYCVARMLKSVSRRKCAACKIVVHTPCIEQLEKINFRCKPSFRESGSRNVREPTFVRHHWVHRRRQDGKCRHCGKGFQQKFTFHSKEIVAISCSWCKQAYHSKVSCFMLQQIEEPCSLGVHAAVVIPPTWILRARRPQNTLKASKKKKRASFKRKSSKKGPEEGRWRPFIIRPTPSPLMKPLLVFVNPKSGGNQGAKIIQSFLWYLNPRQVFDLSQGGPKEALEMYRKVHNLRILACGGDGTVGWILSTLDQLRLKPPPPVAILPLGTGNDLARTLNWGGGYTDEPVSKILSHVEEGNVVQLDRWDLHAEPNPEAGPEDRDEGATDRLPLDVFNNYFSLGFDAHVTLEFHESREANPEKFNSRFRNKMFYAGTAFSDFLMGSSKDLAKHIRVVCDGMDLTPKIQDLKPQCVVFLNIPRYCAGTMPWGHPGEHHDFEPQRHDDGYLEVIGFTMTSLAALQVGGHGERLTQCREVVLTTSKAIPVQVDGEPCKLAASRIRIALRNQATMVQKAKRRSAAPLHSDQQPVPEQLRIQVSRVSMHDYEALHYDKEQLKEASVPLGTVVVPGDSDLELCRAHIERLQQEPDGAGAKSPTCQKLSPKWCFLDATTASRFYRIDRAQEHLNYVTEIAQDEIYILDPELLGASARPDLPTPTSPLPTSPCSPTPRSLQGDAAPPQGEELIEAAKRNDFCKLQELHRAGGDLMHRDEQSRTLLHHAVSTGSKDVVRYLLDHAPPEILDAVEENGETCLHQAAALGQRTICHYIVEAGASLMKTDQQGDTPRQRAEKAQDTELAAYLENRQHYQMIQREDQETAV
Chain of DGKα (P51556 whole entry): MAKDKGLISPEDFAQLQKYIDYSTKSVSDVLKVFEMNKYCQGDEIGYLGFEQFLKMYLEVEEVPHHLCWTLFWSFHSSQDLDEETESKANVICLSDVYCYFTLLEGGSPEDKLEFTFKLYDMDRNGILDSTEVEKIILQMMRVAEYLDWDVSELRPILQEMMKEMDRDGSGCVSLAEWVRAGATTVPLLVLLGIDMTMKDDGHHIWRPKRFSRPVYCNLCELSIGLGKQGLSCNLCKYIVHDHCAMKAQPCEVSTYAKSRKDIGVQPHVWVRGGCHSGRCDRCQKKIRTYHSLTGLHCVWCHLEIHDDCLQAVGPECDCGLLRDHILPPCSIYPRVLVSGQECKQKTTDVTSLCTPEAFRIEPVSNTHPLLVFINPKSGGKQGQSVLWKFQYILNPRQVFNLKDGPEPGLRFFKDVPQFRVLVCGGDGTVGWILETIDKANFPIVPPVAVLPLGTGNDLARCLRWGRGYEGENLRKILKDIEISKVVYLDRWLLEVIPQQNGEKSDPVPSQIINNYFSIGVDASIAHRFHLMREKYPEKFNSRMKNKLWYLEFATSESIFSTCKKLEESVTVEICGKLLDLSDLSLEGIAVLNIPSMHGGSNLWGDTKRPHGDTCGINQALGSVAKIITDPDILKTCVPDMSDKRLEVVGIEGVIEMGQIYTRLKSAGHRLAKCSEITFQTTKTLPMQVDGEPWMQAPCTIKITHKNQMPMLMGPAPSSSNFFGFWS

SMILES: Nc1ncnc2c1ncn2[C@@H]1O[C@H](COP(=O)(O)OP(=O)(O)OP(=O)(O)O)[C@@H](O)[C@H]1O [ATP]
- free ATP (1 mM) competition with ATP acyl phosphate probe, SILAC LC-MS (DGKθ): 14.4
- free ATP (1 mM) competition with ATP acyl phosphate probe, SILAC LC-MS (DGKζ): 16.7
- free ATP (1 mM) competition with ATP acyl phosphate probe, SILAC LC-MS (DGKκ): 15.0
- free ATP competition with ATP acyl phosphate probe, SILAC LC-MS (FER [1]): 19.3

SMILES: Fc1ccc(C(=C2CCNCC2)c2ccc(F)cc2)cc1 [RF001]
- IC50 (DGKα): 223 µM

SMILES: Cc1nc2sccn2c(=O)c1CCN1CCC(=C(c2ccc(F)cc2)c2ccc(F)cc2)CC1 [ritanserin]
- ATP acyl phosphate probe competition, SILAC LC-MS (100 μM compound, SR = 7.9) (FER [2]): 7.9

From article PMC5551460 (Cell chemical biology, 2017)
